Among the data in patent US7378417B2, “Pyrazolo-pyrimidine derivatives” (Hoffmann-La Roche Inc., priority 2004, dated 2008) are Ki and melting point values, retold here.

The Ki is the equilibrium dissociation constant of an inhibitor or competing ligand from its target. As usually defined, the melting point is the temperature of the solid-liquid transition.

For data set [1], the target named is T1, rat mGlu2 receptor (Rattus norvegicus, UniProt P31421).
T1 construct: expressed in transfected cells; host or cells: CHO cells, stably transfected with pcD1mGR2 (G-418 selection); membranes used
T1 sequence (P31421 19-872): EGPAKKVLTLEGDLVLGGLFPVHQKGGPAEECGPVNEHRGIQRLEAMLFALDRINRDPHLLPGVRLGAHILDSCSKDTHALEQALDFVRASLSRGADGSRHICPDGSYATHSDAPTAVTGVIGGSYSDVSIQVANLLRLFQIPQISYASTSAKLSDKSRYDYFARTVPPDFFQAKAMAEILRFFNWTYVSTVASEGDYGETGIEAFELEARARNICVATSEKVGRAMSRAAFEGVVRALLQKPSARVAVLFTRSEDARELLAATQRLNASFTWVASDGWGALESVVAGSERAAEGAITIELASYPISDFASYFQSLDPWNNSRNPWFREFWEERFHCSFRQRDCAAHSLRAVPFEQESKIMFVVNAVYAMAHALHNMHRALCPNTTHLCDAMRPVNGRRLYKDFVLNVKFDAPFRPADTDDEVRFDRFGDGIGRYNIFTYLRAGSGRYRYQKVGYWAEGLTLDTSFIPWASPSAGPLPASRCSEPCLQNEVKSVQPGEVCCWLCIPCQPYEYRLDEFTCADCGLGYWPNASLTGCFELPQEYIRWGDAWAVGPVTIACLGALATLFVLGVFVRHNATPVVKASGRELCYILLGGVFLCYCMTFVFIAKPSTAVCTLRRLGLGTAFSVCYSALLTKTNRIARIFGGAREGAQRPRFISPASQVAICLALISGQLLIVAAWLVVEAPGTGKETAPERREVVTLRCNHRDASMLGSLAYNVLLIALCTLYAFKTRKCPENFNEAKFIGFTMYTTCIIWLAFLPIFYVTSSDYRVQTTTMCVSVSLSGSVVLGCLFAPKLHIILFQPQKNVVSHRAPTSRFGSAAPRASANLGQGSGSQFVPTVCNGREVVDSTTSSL
Description: [3H]-LY354740 binding on mGlu2 transfected CHO cell membranes. Conditions: displacement of 10 nM [3H]-LY354740, CHO cell membranes, room temperature, 1 hour. The text has this:
[^3H]-LY354740 Binding on mGlu2 Transfected CHO Cell Membranes. Transfection and Cell Culture
cDNA encoding the rat mGlu2 receptor protein in pBluescript II was subcloned into the eukaryotic expression vector pcDNA I-amp from Invitrogen Ltd (Paisley, UK). This vector construct (pcD1mGR2) was co-transfected with a psvNeo plasmid encoding the gene for neomycin resistance, into CHO cells by a modified calcium phosphate method described by Chen & Okayama (1988). The cells were maintained in Dulbecco's Modified Eagle medium with reduced L-glutamine (2 mM final concentration) and 10% dialysed foetal calf serum from Gibco-Invitrogen (Carlsbad, Calif., USA). Selection was made in the presence of G-418 (1000 ug/ml final) and […]. Clones were identified by reverse transcription of 5 μg total RNA, followed by PCR using mGlu2 receptor specific primers 5′-[…]-3′ and 5′-[…]-3′ in 60 mM Tris HCl (pH 10), 15 mM (NH4)2SO4, 2 mM MgCl2, 25 units/ml Taq Polymerase with 30 cycles annealing at 60° C. for 1 min., extention at 72° C. for 30 s, and 1 min. 95° C. denaturation.
Cells, cultured as above, were harvested and washed three times with cold PBS and frozen at −80° C. The pellet was resuspended in cold 20 mM HEPES-NaOH buffer containing 10 mM EDTA (pH 7.4), and homogenised with a polytron (Kinematica, AG, Littau, Switzerland) for 10 s at 10 000 rpm. After centrifugation for 30 min. at 4° C., the pellet was washed once with the same buffer, and once with cold 20 mM HEPES-NaOH buffer containing 0.1 mM EDTA, (pH 7.4). Protein content was measured using the micro BCA method from Pierce-Perbio (Rockford, Ill., USA) using bovine serum albumin as standard.
After thawing, the membranes were resuspended in cold 50 mM Tris-HCl buffer containing 2 mM MgCl2 (pH 7) (binding buffer). The final concentration of the membranes in the assays was 25 μg protein/ml. Inhibition experiments were performed with membranes incubated with 10 nM [^3H]-LY354740 at room temperature, for 1 hour, in presence of various concentrations of the compound to be tested. Following the incubations, membranes were filtered onto Whatmann GF/B glass fiber filters and washed 5 times with cold binding buffer. Non specific binding was measured in the presence of 10 μM DCG IV. After transfer of the filters into plastic vials containing 10 ml of Ultima-gold scintillation fluid from Perkin-Elmer (Boston, Mass., USA), the radioactivity was measured by liquid scintillation in a Tri-Carb 2500 TR counter (Packard, Zürich, Switzerland).
The inhibition curves were fitted with a four parameter logistic equation giving IC50 values, and Hill coefficients.

In the case of `O=C(Nc1cccc(S(=O)(=O)N2CCOCC2)c1)c1cnn2c(C(F)(F)F)cc(-c3ccc(C(F)(F)F)cc3)nc12` [Example 1, 7-Trifluoromethyl-5-(4-trifluoromethyl-phenyl)-pyrazolo[1,5-a]pyrimidine-3-carboxylic acid[3-(morpholine-4-sulfonyl)-phenyl]-amide], the melting point is 233 °C. This compound registered an inhibition constant Ki in data set [1] of 30 nM.

For the compound `O=C(Nc1cccc(S(=O)(=O)NCC(F)(F)F)c1)c1cnn2c(C(F)F)cc(-c3ccc(C(F)(F)F)cc3)nc12` [Example 52, 7-Difluoromethyl-5-(4-trifluoromethyl-phenyl)-pyrazolo[1,5-a]pyrimidine-3-carboxylic acid [3-(2,2,2-trifluoro-ethylsulfamoyl)-phenyl]-amide], the melting point is 257 °C.

In turn, `O=C(Nc1cccc(S(=O)(=O)NCC2CC2)c1)c1cnn2c(C(F)F)cc(-c3ccc(C(F)(F)F)cc3)nc12` [Example 73, 7-Difluoromethyl-5-(4-trifluoromethyl-phenyl)-pyrazolo[1,5-a]pyrimidine-3-carboxylic acid [3-(cyclopropylmethyl-sulfamoyl)-phenyl]-amide] returned a melting point of 238 °C.

`O=C(Nc1cccc(S(=O)(=O)Nc2ccccc2)c1)c1cnn2c(C(F)F)cc(-c3ccc(C(F)(F)F)cc3)nc12` [Example 74, 7-Difluoromethyl-5-(4-trifluoromethyl-phenyl)-pyrazolo[1,5-a]pyrimidine-3-carboxylic acid(3-phenylsulfamoyl-phenyl)-amide]: the melting point is 228 °C. For the same compound, the inhibition constant Ki in data set [1] worked out at 67 nM.

The compound `NS(=O)(=O)c1cccc(NC(=O)c2cnn3c(C(F)F)cc(-c4ccc(C(F)(F)F)c(OCC(F)(F)F)c4)nc23)c1` [Example 79, 7-Difluoromethyl-5-[3-(2,2,2-trifluoro-ethoxy)-4-trifluoromethyl-phenyl]-pyrazolo[1,5-a]pyrimidine-3-carboxylic acid(3-sulfamoyl-phenyl)-amide] returned a melting point of 241 °C. The same compound returned a Ki in data set [1] of 11 nM.

Regarding `O=C(Nc1cccc(S(=O)(=O)NCCO)c1)c1cnn2c(C(F)F)cc(-c3ccc(C(F)(F)F)cc3)nc12` [Example 83, 7-Difluoromethyl-5-(4-trifluoromethyl-phenyl)-pyrazolo[1,5-a]pyrimidine-3-carboxylic acid [3-(2-hydroxy-ethylsulfamoyl)-phenyl]-amide], the melting point stood at 231 °C.

Compound `O=C(Nc1cccc(S(=O)(=O)NCc2ccncc2)c1)c1cnn2c(C(F)F)cc(-c3ccc(C(F)(F)F)cc3)nc12` [Example 88, 7-Difluoromethyl-5-(4-trifluoromethyl-phenyl)-pyrazolo[1,5-a]pyrimidine-3-carboxylic acid {3-[(pyridin-4-ylmethyl)-sulfamoyl]-phenyl}-amide] gave a melting point of 221 °C. Also, the Ki in data set [1] came to 15 nM.

Consider `O=C(Nc1cccc(S(=O)(=O)CCO)c1)c1cnn2c(C(F)F)cc(-c3ccc(C(F)(F)F)cc3)nc12` [Example 90, 7-Difluoromethyl-5-(4-trifluoromethyl-phenyl)-pyrazolo[1,5-a]pyrimidine-3-carboxylic acid [3-(2-hydroxy-ethanesulfonyl)-phenyl]-amide], for which the melting point was 205 °C.

`O=C(Nc1cccc(S(=O)(=O)NCc2cccnc2)c1)c1cnn2c(C(F)F)cc(-c3ccc(C(F)(F)F)cc3)nc12` [Example 106, 7-Difluoromethyl-5-(4-trifluoromethyl-phenyl)-pyrazolo[1,5-a]pyrimidine-3-carboxylic acid {3-[(pyridin-3-ylmethyl)-sulfamoyl]-phenyl}-amide]: the melting point is 256 °C.

On to `CN(C)CCNS(=O)(=O)c1cccc(NC(=O)c2cnn3c(C(F)F)cc(-c4ccc(C(F)(F)F)cc4)nc23)c1` [Example 144, 7-Difluoromethyl-5-(4-trifluoromethyl-phenyl)-pyrazolo[1,5-a]pyrimidine-3-carboxylic acid[3-(2-dimethylamino-ethylsulfamoyl)-phenyl]-amide], for which the melting point came out at 184 °C. For the same compound, in data set [1], the affinity, expressed as Ki, was 7 nM.
